Columns and labels:
[1] = biological target: Serine/threonine-protein kinase PAK 1 (Homo sapiens) (UniProt Q13153); experiment: Selectivity interaction (Kinase panel (DSF assay)) EUB0001559a PAK1
[2] = biological target: Serine/threonine-protein kinase NIM1 (Homo sapiens, UniProt Q8IY84); experiment: Selectivity interaction (KinomeScan (DiscoverX)) EUB0001079a NIM1K; conditions: at 1 µM
[3] = biological target: PAS domain-containing serine/threonine-protein kinase (Homo sapiens) (UniProt Q96RG2); experiment: Selectivity interaction (Kinase panel (Z-LYTE Assay)) EUB0001632a PASK; conditions: at 10 µM
Sequence of PAS domain-containing serine/threonine-protein kinase (Homo sapiens) (Q96RG2 whole entry, the tested form may be a part): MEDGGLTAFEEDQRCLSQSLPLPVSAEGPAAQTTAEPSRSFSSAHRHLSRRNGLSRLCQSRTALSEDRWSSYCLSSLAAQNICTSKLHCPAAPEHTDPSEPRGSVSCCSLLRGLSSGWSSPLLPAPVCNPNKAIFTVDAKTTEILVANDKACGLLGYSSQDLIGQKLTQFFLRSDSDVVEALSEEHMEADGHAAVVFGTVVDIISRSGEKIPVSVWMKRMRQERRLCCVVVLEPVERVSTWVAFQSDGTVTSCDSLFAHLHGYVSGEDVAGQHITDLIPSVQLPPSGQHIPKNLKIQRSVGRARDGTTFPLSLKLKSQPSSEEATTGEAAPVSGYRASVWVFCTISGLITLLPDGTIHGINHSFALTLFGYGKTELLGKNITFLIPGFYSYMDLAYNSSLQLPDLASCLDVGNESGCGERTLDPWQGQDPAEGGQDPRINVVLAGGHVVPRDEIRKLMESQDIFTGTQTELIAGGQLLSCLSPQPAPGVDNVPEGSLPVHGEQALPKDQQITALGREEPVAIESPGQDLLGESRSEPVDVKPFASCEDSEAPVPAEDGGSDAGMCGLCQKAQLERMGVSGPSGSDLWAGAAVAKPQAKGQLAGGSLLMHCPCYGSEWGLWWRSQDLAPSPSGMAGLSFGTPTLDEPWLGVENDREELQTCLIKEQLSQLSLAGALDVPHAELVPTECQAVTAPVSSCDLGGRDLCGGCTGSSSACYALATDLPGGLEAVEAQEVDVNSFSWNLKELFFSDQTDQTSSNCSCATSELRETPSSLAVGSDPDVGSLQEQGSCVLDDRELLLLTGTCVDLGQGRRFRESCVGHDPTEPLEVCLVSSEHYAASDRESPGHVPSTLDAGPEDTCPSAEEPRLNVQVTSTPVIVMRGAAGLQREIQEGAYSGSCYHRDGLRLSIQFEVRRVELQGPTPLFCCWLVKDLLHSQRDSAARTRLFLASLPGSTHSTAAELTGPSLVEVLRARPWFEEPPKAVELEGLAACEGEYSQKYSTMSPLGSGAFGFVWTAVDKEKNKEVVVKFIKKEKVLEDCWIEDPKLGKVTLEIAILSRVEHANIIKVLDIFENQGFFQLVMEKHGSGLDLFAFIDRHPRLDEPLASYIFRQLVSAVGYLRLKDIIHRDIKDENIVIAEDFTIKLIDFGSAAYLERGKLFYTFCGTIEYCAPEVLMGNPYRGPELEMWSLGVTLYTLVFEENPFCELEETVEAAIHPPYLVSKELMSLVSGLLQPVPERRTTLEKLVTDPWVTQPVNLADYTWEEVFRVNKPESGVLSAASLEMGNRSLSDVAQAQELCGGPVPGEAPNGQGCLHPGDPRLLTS

[4] = biological target: Beta-2 adrenergic receptor (Homo sapiens, UniProt P07550); experiment: Selectivity interaction (Panel of non-epigenetic targets (kinases, GPCRs, ion channels, and transporters, Eurofins) ) EUB0000271b ADRB2; conditions: at 1 µM
Sequence of Beta-2 adrenergic receptor (P07550 whole entry, looked up): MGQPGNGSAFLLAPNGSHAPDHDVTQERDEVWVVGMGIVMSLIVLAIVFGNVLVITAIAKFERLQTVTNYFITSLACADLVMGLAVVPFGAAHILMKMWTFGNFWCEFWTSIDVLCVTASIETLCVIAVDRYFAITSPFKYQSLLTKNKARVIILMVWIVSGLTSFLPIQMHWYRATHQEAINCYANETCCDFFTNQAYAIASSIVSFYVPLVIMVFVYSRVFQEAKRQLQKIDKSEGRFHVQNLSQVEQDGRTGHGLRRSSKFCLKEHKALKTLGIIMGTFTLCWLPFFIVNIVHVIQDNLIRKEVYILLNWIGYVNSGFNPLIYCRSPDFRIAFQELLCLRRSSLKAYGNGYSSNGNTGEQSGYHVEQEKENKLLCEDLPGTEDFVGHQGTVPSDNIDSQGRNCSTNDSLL

[5] = biological target: Phosphatidylinositol 3-kinase catalytic subunit type 3 (Homo sapiens, UniProt Q8NEB9); experiment: Selectivity interaction (KinomeScan (DiscoverX)) EUB0001049a PIK3C3; conditions: at 1 µM
Sequence of Phosphatidylinositol 3-kinase catalytic subunit type 3 (Q8NEB9 whole entry): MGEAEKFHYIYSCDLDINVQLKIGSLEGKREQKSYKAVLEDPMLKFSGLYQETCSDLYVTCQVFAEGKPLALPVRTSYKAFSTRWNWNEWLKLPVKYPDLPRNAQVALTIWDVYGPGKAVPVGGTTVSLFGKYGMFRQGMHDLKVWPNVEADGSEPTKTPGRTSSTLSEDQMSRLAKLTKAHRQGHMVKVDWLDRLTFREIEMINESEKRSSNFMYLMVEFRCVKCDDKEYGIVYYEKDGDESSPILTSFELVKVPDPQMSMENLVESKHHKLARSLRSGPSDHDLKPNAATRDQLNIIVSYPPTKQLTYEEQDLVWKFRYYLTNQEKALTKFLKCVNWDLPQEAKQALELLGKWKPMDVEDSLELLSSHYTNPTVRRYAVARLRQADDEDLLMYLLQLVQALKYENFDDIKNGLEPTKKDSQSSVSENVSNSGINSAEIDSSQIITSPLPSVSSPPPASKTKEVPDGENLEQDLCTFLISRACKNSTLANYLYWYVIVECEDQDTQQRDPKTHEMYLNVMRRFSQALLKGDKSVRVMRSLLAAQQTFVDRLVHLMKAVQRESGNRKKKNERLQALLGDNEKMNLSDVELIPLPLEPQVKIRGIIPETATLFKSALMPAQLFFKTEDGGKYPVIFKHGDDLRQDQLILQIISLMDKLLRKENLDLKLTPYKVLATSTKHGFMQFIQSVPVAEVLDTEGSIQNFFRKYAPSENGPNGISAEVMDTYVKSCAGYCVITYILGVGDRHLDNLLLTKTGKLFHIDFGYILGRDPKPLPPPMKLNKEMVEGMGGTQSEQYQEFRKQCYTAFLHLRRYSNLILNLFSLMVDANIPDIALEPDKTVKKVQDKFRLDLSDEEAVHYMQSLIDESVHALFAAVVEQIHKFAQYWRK

[6] = biological target: Receptor tyrosine-protein kinase erbB-2 (Homo sapiens, UniProt P04626); experiment: Selectivity interaction (ProQinase) EUB0000171b ERBB2
Sequence of Receptor tyrosine-protein kinase erbB-2 (P04626 whole entry): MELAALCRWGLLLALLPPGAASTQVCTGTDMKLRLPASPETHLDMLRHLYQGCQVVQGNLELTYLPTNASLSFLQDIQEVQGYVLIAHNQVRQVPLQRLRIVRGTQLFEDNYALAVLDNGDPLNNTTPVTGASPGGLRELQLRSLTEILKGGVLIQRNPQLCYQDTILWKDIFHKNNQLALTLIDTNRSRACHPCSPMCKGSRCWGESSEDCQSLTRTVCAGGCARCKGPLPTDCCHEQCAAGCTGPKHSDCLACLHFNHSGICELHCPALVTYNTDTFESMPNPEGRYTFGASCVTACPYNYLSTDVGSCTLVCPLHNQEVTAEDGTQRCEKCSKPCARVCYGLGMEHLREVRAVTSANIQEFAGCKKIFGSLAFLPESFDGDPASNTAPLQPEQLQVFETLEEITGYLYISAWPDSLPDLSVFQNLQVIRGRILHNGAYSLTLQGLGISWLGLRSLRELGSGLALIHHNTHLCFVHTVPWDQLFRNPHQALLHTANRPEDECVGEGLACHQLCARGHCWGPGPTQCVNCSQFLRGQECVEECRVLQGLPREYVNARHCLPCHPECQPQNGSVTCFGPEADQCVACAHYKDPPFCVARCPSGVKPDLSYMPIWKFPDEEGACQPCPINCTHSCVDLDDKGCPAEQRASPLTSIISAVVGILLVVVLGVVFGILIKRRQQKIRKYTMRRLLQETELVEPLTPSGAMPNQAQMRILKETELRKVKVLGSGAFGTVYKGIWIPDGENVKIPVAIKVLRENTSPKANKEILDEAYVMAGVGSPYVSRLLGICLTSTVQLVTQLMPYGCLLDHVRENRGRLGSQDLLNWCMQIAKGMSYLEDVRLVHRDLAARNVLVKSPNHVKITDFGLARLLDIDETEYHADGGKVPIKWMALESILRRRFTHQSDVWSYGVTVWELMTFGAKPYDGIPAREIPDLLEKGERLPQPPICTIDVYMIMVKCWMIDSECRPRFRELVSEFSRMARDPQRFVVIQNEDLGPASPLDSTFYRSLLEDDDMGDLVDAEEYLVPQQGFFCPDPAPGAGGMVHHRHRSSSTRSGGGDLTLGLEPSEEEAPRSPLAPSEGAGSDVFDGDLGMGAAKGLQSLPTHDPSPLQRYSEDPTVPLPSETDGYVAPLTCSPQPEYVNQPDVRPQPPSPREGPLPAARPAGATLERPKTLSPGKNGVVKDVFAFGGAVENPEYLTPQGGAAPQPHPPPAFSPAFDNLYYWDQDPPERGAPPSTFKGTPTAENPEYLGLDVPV

[7] = biological target: T1, Mitogen-activated protein kinase kinase kinase 3 (Homo sapiens) (UniProt Q99759); experiment: Selectivity interaction (KinomeScan (DiscoverX)) EUB0001619a MAP3K3; conditions: at 1 µM
T1 sequence (whole entry): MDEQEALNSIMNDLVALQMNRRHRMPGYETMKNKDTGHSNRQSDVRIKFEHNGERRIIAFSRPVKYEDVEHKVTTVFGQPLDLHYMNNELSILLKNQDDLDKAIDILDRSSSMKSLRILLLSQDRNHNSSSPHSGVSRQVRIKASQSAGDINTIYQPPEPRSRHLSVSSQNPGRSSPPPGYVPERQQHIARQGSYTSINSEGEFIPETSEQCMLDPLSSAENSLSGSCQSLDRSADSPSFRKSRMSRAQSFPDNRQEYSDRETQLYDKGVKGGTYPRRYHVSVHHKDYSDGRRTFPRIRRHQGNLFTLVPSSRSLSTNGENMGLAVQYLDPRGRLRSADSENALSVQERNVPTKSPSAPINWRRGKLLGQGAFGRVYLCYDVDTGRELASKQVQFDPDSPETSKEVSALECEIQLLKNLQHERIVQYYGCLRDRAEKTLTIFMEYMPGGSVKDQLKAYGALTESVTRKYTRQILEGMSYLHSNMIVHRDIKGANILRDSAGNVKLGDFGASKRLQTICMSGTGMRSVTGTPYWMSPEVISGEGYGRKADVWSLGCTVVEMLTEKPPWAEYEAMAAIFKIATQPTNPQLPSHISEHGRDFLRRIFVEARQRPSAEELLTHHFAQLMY

[8] = biological target: G protein-coupled receptor kinase 5 (Homo sapiens, UniProt P34947); experiment: Selectivity interaction (SelectScreen profiling (Invitrogen)) EUB0000607a GRK5; conditions: at 2 µM
[9] = biological target: Ribosomal protein S6 kinase beta-1 (Homo sapiens, UniProt P23443); experiment: Selectivity interaction (ActivX KiNativ screen (kinase selectivity in THP-1 cell lysates)) EUB0000639a RPS6KB1; format: subcellular; conditions: lysate, at 0.2 µM
[10] = biological target: T2, Mitogen-activated protein kinase 12 (Homo sapiens) (UniProt P53778); experiment: Selectivity interaction (KinomeScan (DiscoverX)) EUB0000655a MAPK12; conditions: at 10 µM
T2 sequence (whole entry): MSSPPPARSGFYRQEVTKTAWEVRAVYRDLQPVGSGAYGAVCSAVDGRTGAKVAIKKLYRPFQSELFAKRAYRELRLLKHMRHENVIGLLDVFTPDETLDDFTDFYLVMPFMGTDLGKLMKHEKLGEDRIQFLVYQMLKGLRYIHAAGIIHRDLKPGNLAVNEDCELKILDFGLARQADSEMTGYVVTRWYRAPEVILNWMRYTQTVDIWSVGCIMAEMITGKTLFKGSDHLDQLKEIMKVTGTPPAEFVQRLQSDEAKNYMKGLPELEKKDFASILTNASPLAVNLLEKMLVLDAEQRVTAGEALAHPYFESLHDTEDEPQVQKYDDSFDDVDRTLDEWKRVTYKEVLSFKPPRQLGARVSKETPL

[11] = Selectivity interaction (KinomeScan (DiscoverX)) EUB0000655a CDK2H; conditions: at 10 µM
[12] = biological target: Tyrosine-protein kinase Yes (Homo sapiens) (UniProt P07947); experiment: Selectivity interaction (KinomeScan (DiscoverX)) EUB0000092b YES1; conditions: at 10 µM
Sequence of Tyrosine-protein kinase Yes (Homo sapiens) (P07947 2-543 limits assumed): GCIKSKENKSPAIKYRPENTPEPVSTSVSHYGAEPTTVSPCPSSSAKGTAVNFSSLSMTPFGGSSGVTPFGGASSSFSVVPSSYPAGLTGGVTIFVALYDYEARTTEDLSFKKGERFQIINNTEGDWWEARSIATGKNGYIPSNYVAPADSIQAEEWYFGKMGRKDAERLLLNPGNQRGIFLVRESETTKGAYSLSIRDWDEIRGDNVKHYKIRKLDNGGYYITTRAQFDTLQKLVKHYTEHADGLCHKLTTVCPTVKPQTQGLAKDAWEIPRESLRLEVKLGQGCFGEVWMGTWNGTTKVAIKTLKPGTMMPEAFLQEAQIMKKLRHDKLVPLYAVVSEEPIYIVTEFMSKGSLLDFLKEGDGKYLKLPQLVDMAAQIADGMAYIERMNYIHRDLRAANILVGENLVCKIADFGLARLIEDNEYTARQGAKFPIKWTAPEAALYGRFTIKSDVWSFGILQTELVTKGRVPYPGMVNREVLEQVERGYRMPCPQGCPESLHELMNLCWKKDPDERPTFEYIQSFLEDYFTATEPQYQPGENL

[13] = biological target: T3, Serine/threonine-protein kinase ULK2 (Homo sapiens) (UniProt Q8IYT8); experiment: Selectivity interaction (Ambit KINOMEscan and KiNATiv profiling in Jurkat cells) EUB0000090b ULK2; format: cell-based; conditions: at 1 µM
T3 sequence (whole entry): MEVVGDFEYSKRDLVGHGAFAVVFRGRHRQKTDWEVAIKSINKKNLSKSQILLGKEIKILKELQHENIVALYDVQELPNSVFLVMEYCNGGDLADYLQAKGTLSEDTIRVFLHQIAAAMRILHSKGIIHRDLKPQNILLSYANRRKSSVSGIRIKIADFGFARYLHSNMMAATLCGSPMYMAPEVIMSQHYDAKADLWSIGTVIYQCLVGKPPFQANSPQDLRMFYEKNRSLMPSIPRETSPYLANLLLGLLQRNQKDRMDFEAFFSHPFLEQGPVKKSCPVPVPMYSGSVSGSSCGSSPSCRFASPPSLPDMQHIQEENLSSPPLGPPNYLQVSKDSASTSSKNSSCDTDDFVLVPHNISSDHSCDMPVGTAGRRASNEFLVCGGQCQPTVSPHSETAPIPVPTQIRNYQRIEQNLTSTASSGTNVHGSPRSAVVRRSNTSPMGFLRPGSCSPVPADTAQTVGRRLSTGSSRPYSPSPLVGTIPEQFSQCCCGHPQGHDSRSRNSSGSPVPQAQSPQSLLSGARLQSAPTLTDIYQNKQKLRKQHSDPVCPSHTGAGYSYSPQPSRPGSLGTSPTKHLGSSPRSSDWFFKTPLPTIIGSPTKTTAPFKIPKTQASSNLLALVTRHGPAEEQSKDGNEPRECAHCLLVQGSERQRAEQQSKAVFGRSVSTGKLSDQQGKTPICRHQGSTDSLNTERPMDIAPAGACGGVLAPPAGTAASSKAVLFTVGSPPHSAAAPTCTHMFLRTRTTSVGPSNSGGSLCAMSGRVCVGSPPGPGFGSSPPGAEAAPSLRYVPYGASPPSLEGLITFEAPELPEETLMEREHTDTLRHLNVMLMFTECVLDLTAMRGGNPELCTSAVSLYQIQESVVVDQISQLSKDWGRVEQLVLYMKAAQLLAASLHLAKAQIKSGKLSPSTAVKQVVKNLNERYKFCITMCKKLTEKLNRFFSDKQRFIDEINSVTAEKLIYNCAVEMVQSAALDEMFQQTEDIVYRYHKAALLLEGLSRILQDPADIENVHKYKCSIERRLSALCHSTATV

Sequence of Serine/threonine-protein kinase PAK 1 (Homo sapiens) (Q13153 whole entry): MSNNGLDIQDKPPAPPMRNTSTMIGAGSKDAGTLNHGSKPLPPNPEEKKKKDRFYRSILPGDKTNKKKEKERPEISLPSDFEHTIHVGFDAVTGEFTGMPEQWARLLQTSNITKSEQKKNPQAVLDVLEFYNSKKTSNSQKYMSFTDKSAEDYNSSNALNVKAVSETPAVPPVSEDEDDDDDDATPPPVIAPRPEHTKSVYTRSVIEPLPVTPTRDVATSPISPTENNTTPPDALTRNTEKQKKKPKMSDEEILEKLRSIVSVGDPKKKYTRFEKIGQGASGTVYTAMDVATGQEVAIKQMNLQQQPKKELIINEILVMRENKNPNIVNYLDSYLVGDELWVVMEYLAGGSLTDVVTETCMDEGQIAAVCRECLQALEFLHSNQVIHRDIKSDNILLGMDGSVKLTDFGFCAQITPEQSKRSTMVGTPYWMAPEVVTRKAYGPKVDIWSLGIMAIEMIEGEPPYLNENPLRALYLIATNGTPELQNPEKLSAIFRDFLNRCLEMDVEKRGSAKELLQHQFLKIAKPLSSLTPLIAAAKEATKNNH

CN(C(=O)c1cnn2cccnc12)c1cc2c(cc1N1CCOCC1)C(=O)N(C[C@@H](F)C(C)(C)O)C2
dTM [1]: -0.1 K

Nc1cnc(N2CCc3cc(S(=O)(=O)Nc4c(F)cc(Cl)cc4F)cc(N4CCCC4=O)c32)nc1 [TP-020n]
% of control [2]: 100%

Cn1cc(-n2cnc3c(NCc4nc5cc(Cl)c(Cl)cc5[nH]4)nc(N4CCOCC4)nc32)cn1
% of control [3]: 2.87%

Cc1cc(C)cc([C@@H]2c3cc(C)ccc3NC(=O)CN2C(=O)c2ccc(Br)s2)c1
% of inhibition [4]: -7%

COc1cc(Nc2nc(C)cc(-c3cnn4nc(OC)ccc34)n2)cc(C(F)(F)F)c1
% of control [5]: 100%

C=CC(=O)Nc1cccc(C(=O)Nc2ccc(Nc3cc(-c4[nH]c(SC)nc4C)ccn3)cc2)c1
% of control ([6]; at 1 µM): 92%
% of control ([6]; at 5 µM): 94%

N#Cc1cccc(-c2c[nH]c3ncnc(N4CCOCC4)c23)c1
% of control [7]: 8.2%

CNC(=O)Nc1ccc(-c2nc(N3CC4CCC(C3)O4)c3cnn(C4CCC5(CC4)OCCO5)c3n2)cc1
% of inhibition [8]: -4%

CC[C@@H]1[C@H](F)C(=O)N[C@@H]1COc1nccc2cc(C(N)=O)c(OC)cc12 [ZIMLOVISERTIB]
% of inhibition [9]: -6.2%

CN(C)CCOc1ccc(-c2nc(-c3ccncc3)c(-c3ccc4c(c3)CC/C4=N\O)[nH]2)cc1
% of control [10]: 77%
% of control [11]: 86%

CCC(=O)N1CCN(c2ccc(-n3c(=O)ccc4cnc5ccc(-c6cnc7ccccc7c6)cc5c43)cc2C(F)(F)F)CC1
% of control [12]: 74%

CN(C)C/C=C/C(=O)Nc1ccc(C(=O)N2CCCC(Nc3ncc(Cl)c(-c4c[nH]c5ccccc45)n3)C2)cc1 (centres undefined)
% of control [13]: 100%
